The record followed here is US7834013B2, “Aminophenylcyclopropyl carboxylic acids and derivatives as agonists to GPR40” (GlaxoSmithKline LLC, priority 2003, dated 2010).

SMILES strings stand for the structures. Where a name gives a salt, the structure may show the parent alone.

The target in this assay is T1, GPR40 (Homo sapiens, UniProt O14842).
T1 construct: expressed in transfected cells
Put plainly: GPR40 SAR Primary Assay (Elk-1/Gal4-luc+ reporter, luciferase activity). Type of assay: cell-based. As to conditions: stable GPR40 Elk-1/Gal4-luc+ CHO cell line, 5 hours incubation. Here is the method: An existing stable GPR40 Elk-1/Gal4-luc^+ CHO cell line generated by electroporation and functional cloning was used. Cells were maintained in a humidified incubator at 37° C./5% CO2 in complete media containing DMEM/F12 (Gibco, #11039-021), 5% FBS (Gibco, #16140-071) and 1% Glutamine (Gibco, #25030-081). Cell maintenance passages were made at 1:40 dilution every 3-4 days. Forty eight hours prior to assay, 15e6 cells were added to 200 ml of complete media then seeded into a 1200 cm^2-cell factory and returned to a humidified incubator at 37° C./5% CO2. 20 hours prior to assay, the growth media was removed and replaced with 200 ml of serum-free DMEM/F12 to quiesce background activity. At the time of assay, cells were harvested using non-enzymatic cell dissociation solution (Sigma, #C-5914), washed and counted. The 20 hour starve media was collected and used as condition media for cell assay plating. Cells were plated at a concentration of 10,000 cells/well in a total well volume of […] in black 96-well clear bottom polystyrene plates (CoStar, #3904). Test compounds were prepared as serial dilutions in 100% DMSO, then 1 ul was delivered to each well resulting in a final concentration of 1% DMSO. The plates were then returned to a humidified incubator at 37° C./5% CO2 for 5 hours. Following the incubation, the medium was replaced with 50 ul of a 1:1 mixture of SteadyGlo™ (Promega, #E2550) and dPBS containing 1 mM CaCl2 and 1 mM MgCl2. Plates were then sealed and subjected to dark adaptation at room temperature for 10 minutes. Luciferase activity was measured on a Packard TopCount™ microplate scintillation counter using 2 seconds per well count time.
Data analysis was performed using standard methods.
The Normalization Equation used was 100*(Unknown compound response−Background response)/(Agonist Max response−Background response).
The Curve Fit Function used was y=((Vmax*x^n)/(K^n+x^n))+Y2.
A percent max response and pEC50 were recorded for each compound. Although specific pEC50 values are given, these values should be considered exemplary. Those skilled in the art will appreciate the variability in performing and recording the biological activity assays that are herein described. The compounds of the present invention provide a pEC50 of at least 5.0.

T1 sequence (O14842 whole entry): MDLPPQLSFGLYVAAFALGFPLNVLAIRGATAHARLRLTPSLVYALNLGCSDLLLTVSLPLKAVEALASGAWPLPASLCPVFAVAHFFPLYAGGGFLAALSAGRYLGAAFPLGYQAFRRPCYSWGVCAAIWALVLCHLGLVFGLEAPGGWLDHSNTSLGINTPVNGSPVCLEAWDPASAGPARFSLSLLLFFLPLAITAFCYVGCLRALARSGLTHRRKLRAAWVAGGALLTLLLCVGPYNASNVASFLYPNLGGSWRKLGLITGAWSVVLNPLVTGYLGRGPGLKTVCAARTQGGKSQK

`Cc1nc(-c2ccc(C(F)(F)F)cc2)sc1CNc1ccc([C@@H]2C[C@H]2C(=O)NCc2ccncc2)cc1` (racemic) [Example 37, Racemic-(trans)-2-{4-[({4-methyl-2-[4-(trifluoromethyl)phenyl]-1,3-thiazol-5-yl}methyl)amino]phenyl}-N-(4-pyridinylmethyl)cyclopropanecarboxamide]: the EC50 was 10 nM.
Regarding `Cc1nc(-c2ccc(C(F)(F)F)cc2)sc1CNc1ccc([C@@H]2C[C@H]2C(N)=O)cc1` (racemic) [Example 43, Racemic-(trans)-2-{4-[({4-methyl-2-[4-(trifluoromethyl)phenyl]-1,3-thiazol-5-yl}methyl)amino]phenyl}cyclopropanecarboxamide], a half-maximal response (EC50) required 20 nM.
In the case of `Cc1nc(-c2ccc(C(F)(F)F)cc2)sc1CNc1ccc([C@@H]2C[C@H]2C(=O)NC(C)C)cc1` (racemic) [Example 45, Racemic-(trans)-N-isopropyl-2-{4-[({4-methyl-2-[4-(trifluoromethyl)phenyl]-1,3-thiazol-5-yl}methyl)amino]phenyl}cyclopropanecarboxamide] it was 10 nM; in that of `Cc1nc(-c2ccc(C(F)(F)F)cc2)sc1CNc1ccc([C@@H]2C[C@H]2C(=O)N(C)C)cc1` (racemic) [Example 46, Racemic-(trans)-N,N-dimethyl-2-{4-[({4-methyl-2-[4-(trifluoromethyl)phenyl]-1,3-thiazol-5-yl}methyl)amino]phenyl}cyclopropanecarboxamide], 63.1 nM; in that of `O=C(NCc1ccncc1)[C@@H]1C[C@H]1c1ccc(NCc2cccc(Oc3ccccc3)c2)cc1` (racemic) [Example 47, Racemic-(trans)-2-[4-({[3-(phenyloxy)phenyl]methyl}amino)phenyl]-N-(4-pyridinylmethyl)cyclopropanecarboxamide], 10 nM.
Then `COc1ccc(CNC(=O)[C@@H]2C[C@H]2c2ccc(NCc3cccc(Oc4ccccc4)c3)cc2)cc1` (racemic) [Example 48, Racemic-(trans)-N-(4-methoxybenzyl)-2-{4-[(3-phenoxybenzyl)amino]phenyl}cyclopropanecarboxamide], with 31.6 nM.
On to `O=C(NCc1ccc(C(F)(F)F)cc1)[C@@H]1C[C@H]1c1ccc(NCc2cccc(Oc3ccccc3)c2)cc1` (racemic) [Example 49, Racemic-(trans)-2-{4-[(3-phenoxybenzyl)amino]phenyl}-N-[4-(trifluoromethyl)benzyl]cyclopropanecarboxamide], for which the EC50 is 31.6 nM.
Then `O=C(NCCN1CCOCC1)[C@@H]1C[C@H]1c1ccc(NCc2cccc(Oc3ccccc3)c2)cc1` (racemic) [Example 50, Racemic-(trans)-N-(2-morpholin-4-ylethyl)-2-{4-[(3-phenoxybenzyl)amino]phenyl}cyclopropanecarboxamide], with 251 nM.
Then `O=C(NCC(F)(F)F)[C@@H]1C[C@H]1c1ccc(NCc2cccc(Oc3ccccc3)c2)cc1` (racemic) [Example 51, Racemic-(trans)-2-{4-[(3-phenoxybenzyl)amino]phenyl}-N-(2,2,2-trifluoroethyl)cyclopropanecarboxamide], with 50.1 nM; and `CC(C)NC(=O)[C@@H]1C[C@H]1c1ccc(NCc2sc(-c3ccc(C(F)(F)F)cc3)nc2C(C)C)cc1` (racemic) [Example 52, Racemic-(trans)-N-isopropyl-2-{4-[({4-isopropyl-2-[4-(trifluoromethyl)phenyl]-1,3-thiazol-5-yl}methyl)amino]phenyl}cyclopropanecarboxamide], with 15.8 nM.
Then `O=C(O)[C@@H]1C[C@H]1c1ccc(NCc2cccc(Oc3ccccc3)c2)cc1` (single isomer, unassigned) [Example 25], with 631 nM.
For `Cc1nc(-c2ccc(C(F)(F)F)cc2)sc1CNc1ccc([C@@H]2C[C@H]2C(=O)NCc2ccncc2)cc1` (single isomer, unassigned) [Example 38, Enantiomerically Enriched (trans)-2-{4-[({4-methyl-2-[4-(trifluoromethyl)phenyl]-1,3-thiazol-5-yl}methyl)amino]phenyl}-N-(4-pyridinylmethyl)cyclopropanecarboxamide TFA Salt], the response was half-maximal at 5.01 nM (EC50).
In the case of `Cc1nc(-c2ccc(C(F)(F)F)cc2)sc1CNc1ccc([C@@H]2C[C@H]2C(N)=O)cc1` (single isomer, unassigned) [Example 39, Enantiomerically Enriched (trans)-2-{4-[({4-methyl-2-[4-(trifluoromethyl)phenyl]-1,3-thiazol-5-yl}methyl)amino]phenyl}cyclopropanecarboxamide] it was 10 nM; in that of `Cc1nc(-c2ccc(C(F)(F)F)cc2)sc1CNc1ccc([C@@H]2C[C@H]2C(=O)NO)cc1` (single isomer, unassigned) [Example 41, Enantiomerically Enriched (trans)-N-hydroxy-2-{4-[({4-methyl-2-[4-(trifluoromethyl)phenyl]-1,3-thiazol-5-yl}methyl)amino]phenyl}cyclopropanecarboxamide], 6.31 nM; in that of `Cc1nc(-c2ccc(C(F)(F)F)cc2)sc1CNc1ccc([C@@H]2C[C@H]2C(=O)NC2CCC2)cc1` (single isomer, unassigned) [Example 42, Enantiomerically Enriched (trans)-N-cyclobutyl-2-{4-[({4-methyl-2-[4-(trifluoromethyl)phenyl]-1,3-thiazol-5-yl}methyl)amino]phenyl}cyclopropanecarboxamide], 7.94 nM.
Then `O=C(O)C1CC1c1ccc(NCc2cccc(Oc3ccccc3)c2)cc1` (single isomer, unassigned; (+)) [Example 26, (+)-(Trans)-2-{4-[(3-phenoxybenzyl)amino]phenyl}cyclopropanecarboxylic Acid], with 3.98 nM; and `Cc1nc(-c2ccc(C(F)(F)F)cc2)sc1CNc1ccc(C2CC2C(=O)O)cc1` (single isomer, unassigned; (+)) [Example 27, (+)-(Trans)-2-{4-[({4-methyl-2-[4-(trifluoromethyl)phenyl]-1,3-thiazol-5-yl}methyl)amino]phenyl}cyclopropanecarboxylic Acid], with 3.98 nM.
In the case of `O=C(O)C1CC1c1ccc(NCc2cccc(Oc3ccc(Cl)c(Cl)c3)c2)cc1` (single isomer, unassigned; (+)) [Example 28a, (+)-(Trans)-2-{4-[({3-[(3,4-dichlorophenyl)oxy]phenyl}methyl)amino]phenyl}cyclopropanecarboxylic Acid Trifluoroacetate] it was 3.16 nM.
Molecule `O=C(O)C1CC1c1ccc(NCc2cccc(Oc3ccccc3)c2)cc1Cl` (single isomer, unassigned; (+)) [Example 30a, (+)-(Trans)-2-[2-chloro-4-({[3-(phenyloxy)phenyl]methyl}amino)phenyl]cyclopropanecarboxylic Acid] had an EC50 of 398 nM.
In the case of `O=C(O)C1CC1c1cc(F)c(NCc2cccc(Oc3ccccc3)c2)cc1F` (single isomer, unassigned; (+)) [Example 31a, (+)-(trans)-2-[2,5-difluoro-4-({[3-(phenyloxy)phenyl]methyl}amino)phenyl]cyclopropanecarboxylic Acid], the midpoint of the response, the EC50, lay at 501 nM.
In turn, `CC(C)NC(=O)C1CC1c1ccc(NCc2cccc(Oc3ccccc3)c2)cc1` (single isomer, unassigned; (+)) [Example 44, (+)-(trans)-N-(1-methylethyl)-2-[4-({[3-(phenyloxy)phenyl]methyl}amino)phenyl]cyclopropanecarboxamide] showed an EC50 of 10 nM.

As a reminder, the EC50 is the concentration that produces a half-maximal response.
